The values below come from paper PMC2561905 (Biochemistry, 2008).

Assay [1] has as its system I48V. To be noted: read-out: Operator capture by LLhP and variants (× 10^-7 M hypoxanthine), lacO^disC; [co-repressor]mid; SD, n = 3.
Assay [2] relates to I48S. The note with it: read-out: Operator capture by LLhP and variants (× 10^-7 M hypoxanthine), lacO^sym; [co-repressor]mid; SD, n = 3.
The test system of assay [3] is Q55T. To be noted: read-out: Operator capture by LLhP and variants (× 10^-7 M hypoxanthine), lacO^sym; [co-repressor]mid; SD, n = 3.
In assay [4] the test system is LLhP. To be noted: read-out: Operator capture by LLhP and variants (× 10^-7 M hypoxanthine), lacO^1; [co-repressor]mid; SD, n = 3.
For assay [5], the system named is LLhP. The note with it: read-out: Operator capture by LLhP and variants (× 10^-7 M hypoxanthine), lacO^disC; [co-repressor]mid; SD, n = 3.
Assay [6] concerns Q55T. The note with it: read-out: Operator capture by LLhP and variants (× 10^-7 M hypoxanthine), lacO^disC; [co-repressor]mid; SD, n = 3.
Assay [7] relates to I48S. To be noted: read-out: Operator capture by LLhP and variants (× 10^-7 M hypoxanthine), lacO^1; [co-repressor]mid; SD, n = 3.
The subject of assay [8] is LLhP. The note with it: read-out: Operator capture by LLhP and variants (× 10^-7 M hypoxanthine), lacO^sym; [co-repressor]mid; SD, n = 3.
Assay [9] relates to S61M. To be noted: read-out: Operator capture by LLhP and variants (× 10^-7 M hypoxanthine), lacO^1; [co-repressor]mid; SD, n = 3.
The test system of assay [10] is I48S. The note with it: read-out: Operator capture by LLhP and variants (× 10^-7 M hypoxanthine), lacO^disC; [co-repressor]mid; SD, n = 3.
The subject of assay [11] is S61M. To be noted: read-out: Operator capture by LLhP and variants (× 10^-7 M hypoxanthine), lacO^disC; [co-repressor]mid; SD, n = 3.
Assay [12] has as its system S61C. The note with it: read-out: Operator capture by LLhP and variants (× 10^-7 M hypoxanthine), lacO^1; [co-repressor]mid; SD, n = 3.
The test system of assay [13] is Q55V. To be noted: read-out: Operator capture by LLhP and variants (× 10^-7 M hypoxanthine), lacO^disC; [co-repressor]mid; SD, n = 3.
Assay [14] concerns I48V. To be noted: read-out: Operator capture by LLhP and variants (× 10^-7 M hypoxanthine), lacO^1; [co-repressor]mid; SD, n = 3.
Assay [15] concerns S61C. To be noted: read-out: Operator capture by LLhP and variants (× 10^-7 M hypoxanthine), lacO^disC; [co-repressor]mid; SD, n = 3.
Assay [16] deals with Q55V. The note with it: read-out: Operator capture by LLhP and variants (× 10^-7 M hypoxanthine), lacO^1; [co-repressor]mid; SD, n = 3.
Assay [17] has as its system Q55V. The note with it: read-out: Operator capture by LLhP and variants (× 10^-7 M hypoxanthine), lacO^sym; [co-repressor]mid; SD, n = 3.
The test system of assay [18] is I48V. To be noted: read-out: Operator capture by LLhP and variants (× 10^-7 M hypoxanthine), lacO^sym; [co-repressor]mid; SD, n = 3.
Assay [19] has as its system Q55T. The note with it: read-out: Operator capture by LLhP and variants (× 10^-7 M hypoxanthine), lacO^1; [co-repressor]mid; SD, n = 3.
Another assay concerns lacO^sym operator DNA. To be noted: LacI without inducer; cited from earlier work.
A further assay has as its system lacO^disC operator DNA. Put plainly: Nitrocellulose filter binding, DNA-binding affinity for lacO^disC. The note with it: LLhP+HX compared with LacI without inducer.
The subject of the next assay is lacO^1 operator DNA. Put plainly: Operator capture experiment with lacO^1. The assay is classed as binding, E. coli. To be noted: curves super-imposable for three different operator sequences.

Like-named read-outs stand apart in the source and are kept apart here.

`O=c1[nH]cnc2[nH]cnc12` [hypoxanthine, hypoxanthine (HX)]: the EC50 in the assay with I48V [1] worked out at 3.3 ± 0.16 µM; in the assay on I48S [2] it was 670 ± 60 nM; in the assay on Q55T [3], 430 ± 40 nM; in the assay with LLhP [4], 410 ± 70 nM; with LLhP [5] it was 370 ± 80 nM; with Q55T [6], 2100 ± 160 nM. For the same molecule, the EC50 in the assay with I48S [7] is 950 ± 70 nM; in the assay on LLhP [8] it was 550 ± 230 nM; with S61M [9], 5.9 ± 0.34 µM; with I48S [10], 1600 ± 180 nM; in the assay on S61M [11], 11.7 ± 1.2 µM; with S61C [12], 4.7 ± 0.41 µM. The EC50 stood at 2200 ± 80 nM in the assay with Q55V [13]; 880 ± 60 nM in the assay with I48V [14]; 8 ± 0.27 µM in the assay on S61C [15]; 1000 ± 130 nM in the assay with Q55V [16]; 850 ± 60 nM with Q55V [17]; 570 ± 50 nM with I48V [18]. In addition, the EC50 in the assay with Q55T [19] came to 1000 ± 80 nM.

B1: LacI: lactose repressor protein, naturally-occurring LacI/GalR homologue used for comparison (protein, UniProt P03023 1-360, looked up)
Lactose operon repressor: MKPVTLYDVAEYAGVSYQTVSRVVNQASHVSAKTREKVEAAMAELNYIPNRVAQQLAGKQSLLIGVATSSLALHAPSQIVAAIKSRADQLGASVVVSMVERSGVEACKAAVHNLLAQRVSGLIINYPLDDQDAIAVEAACTNVPALFLDVSDQTPINSIIFSHEDGTRLGVEHLVALGHQQIALLAGPLSSVSARLRLAGWHKYLTRNQIQPIAEREGDWSAMSGFQQTMQMLNEGIVPTAMLVANDQMALGAMRAITESGLRVGADISVVGYDDTEDSSCYIPPLTTIKQDFRLLGQTSVDRLLQLSQGQAVKGNQLLPVSLVKRKTTLAPNTQTASPRALADSLMQLARQVSRLESGQ
For B1, the “Tighter binding of lacO^sym than lacO^1” value with lacO^sym operator DNA was about 10 fold.

B2: LLhP: chimeric repressor: LacI DNA-binding domain, LacI linker and PurR regulatory domain; homodimer (protein)
chain: MKPVTLYDVAEYAGVSYQTVSRVVNQASHVSAKTREKVEAAMAELNYIPNRVAQQLAGKQSLLIGVATSSLALHAPSQIVAAIKSRADQLGASVVVSMVERSGVEACKAAVHNLLAQRVSGLIINYPLDDQDAIAVEAACTNVPALFLDVSDQTPINSIIFSHEDGTRLGVEHLVALGHQQIALLAGPLSSVSARLRLAGWHKYLTRNQIQPIAEREGDWSAMSGFQQTMQMLNEGIVPTAMLVANDQMALGAMRAITESGLRVGADISVVGYDDTEDSSCYIPPLTTIKQDFRLLGQTSVDRLLQLSQGQAVKGNQLLPVSLVKRKTTLAPNATIKDVAKRANVSTTTVSHVINKTRFVAEETRNAVWAAIKELHYSPSAVARSLKVNHTKSIGLLATSSEAAYFAEIIEAVEKNCFQKGYTLILGNAWNNLEKQRAYLSMMAQKRVDGLLVMCSEYPEPLLAMLEEYRHIPMVVMDWGEAKADFTDAVIDNAFEGGYMAGRYLIERGHREIGVIPGPLERNTGAGRLAGFMKAMEEAMIKVPESWIVQGDFEPESGYRAMQQILSQPHRPTAVFCGGDIMAMGALCAADEMGLRVPQDVSLIGYDNVRNARYFTPALTTIHQPKDSLGETAFNMLLDRIVNKREEPQSIEVHPRLIERRSVADGPFRDYRR
As for B2, the “Tighter binding of lacO^disC than LacI” value in the assay on lacO^disC operator DNA was about 30 fold. For the same molecule, in the assay on lacO^1 operator DNA, the Operator capture mid-point result is on record as “around 4.4 × 10 ^−7 M hypoxanthine”.
